Consider 3 molecules from patent US8445497B2, “Compounds for the treatment of hepatitis C” (Bristol-Myers Squibb Company, priority 2010, dated 2013).

Usually IC50 stands for the concentration that gives 50% inhibition. As a reminder, the EC50 is the concentration giving half of the maximal effect. A higher EC50 goes with weaker potency.

One series has as its target T1, HCV NS5B (Hepatitis C virus genotype 1b, UniProt Q9WMX2).
T1 construct: The protein was expressed with an 18 amino acid C-terminal truncation to enhance the solubility; made in house; host or cells: E. coli BL21(DE3)
Put plainly: HCV NS5B RdRp enzyme assay. Format: biochemical. The note with it: HCV NS5B RdRp genotype 1b. On the procedure: HCV NS5B RdRp cloning, expression, and purification. The cDNA encoding the NS5B protein of HCV, genotype 1b, was cloned into the pET21a expression vector. The protein was expressed with an 18 amino acid C-terminal truncation to enhance the solubility. The E. coli competent cell line BL21(DE3) was used for expression of the protein. Cultures were grown at 37° C. for ˜4 hours until the cultures reached an optical density of 2.0 at 600 nm. The cultures were cooled to 20° C. and induced with 1 mM IPTG. Fresh ampicillin was added to a final concentration of 50 μg/mL and the cells were grown overnight at 20° C.
Cell pellets (3 L) were lysed for purification to yield 15-24 mgs of purified NS5B. The lysis buffer consisted of 20 mM Tris-HCl, pH 7.4, 500 mM NaCl, 0.5% triton X-100, 1 mM DTT, 1 mM EDTA, 20% glycerol, 0.5 mg/ml lysozyme, 10 mM MgCl2, 15 ug/ml deoxyribonuclease I, and Complete TM protease inhibitor tablets (Roche). After addition of the lysis buffer, frozen cell pellets were resuspended using a tissue homogenizer. To reduce the viscosity of the sample, aliquots of the lysate were sonicated on ice using a microtip attached to a Branson sonicator. […]
Standard HCV NS5B RdRp enzyme assay. […] Plates were read on a Packard Top Count NXT after >1 hr incubation at room temperature. […]

The subject of series [1] is genotype 1a or 1b HCV replicon in Huh-7 cells. Kind of series: HCV replicon luciferase assay. Conditions: Hepatitis C virus, 72 h; Huh-7 HCV replicon, Renilla luciferase, 3 days; genotype 1a or 1b not stated. Format: cell-based. Here is the method: Cell lines. The cell lines used to evaluate compounds consist of a human hepatocyte derived cell line (Huh-7) that constitutively expresses a genotype 1a or 1b HCV replicon containing a Renilla luciferase reporter gene. These cells were maintained in Dulbecco's modified Eagle medium (DMEM) containing 10% FBS, 100 U/mL penicillin/streptomycin and 1.0 mg/mL G418.
HCV replicon luciferase assay. To evaluate compound efficacy, HCV replicon cells were seeded in 96-well plates in DMEM containing 10% FBS at a cell density of 10^4/well. Following incubation at 37° C. overnight, compounds serially diluted in DMSO were added to the cell plates. Alternatively, titrated compounds were transferred to sterile 384-well tissue-culture treated plates and the plates seeded with 50 μL of cells at a density of 2.4×10^3 cells/well in DMEM containing 4% FCS (final DMSO concentration at 0.5%). After 3 days incubation at 37° C., cells were analyzed for Renilla Luciferase activity using the EnduRen substrate (Promega cat #E6485) according to the manufacturer's directions. Briefly, the EnduRen substrate was diluted in DMEM and then added to the plates to a final concentration of 7.5 μM. The plates were incubated for at least 1 h at 37° C. then read on a TopCount NXT Microplate Scintillation and Luminescence Counter (Packard) or Viewlux Imager (PerkinElmer) using a luminescence program. […]
(In antiviral work, replicon cells carry a viral genome segment that copies itself.)

For series [2] the following is noted: extended dosing of the combination regimens with interferon and ribavirin; cited from earlier work.
The subject of series [3] is HCV. The note with it: single agent: transient decrease then rebound; more robust drop with interferon and ribavirin; cited from earlier work.
In series [4] the test system is HCV. The note with it: combination therapy, Poynard et al. 1998; cited from earlier work.

T1 sequence (Q9WMX2 2420-2992): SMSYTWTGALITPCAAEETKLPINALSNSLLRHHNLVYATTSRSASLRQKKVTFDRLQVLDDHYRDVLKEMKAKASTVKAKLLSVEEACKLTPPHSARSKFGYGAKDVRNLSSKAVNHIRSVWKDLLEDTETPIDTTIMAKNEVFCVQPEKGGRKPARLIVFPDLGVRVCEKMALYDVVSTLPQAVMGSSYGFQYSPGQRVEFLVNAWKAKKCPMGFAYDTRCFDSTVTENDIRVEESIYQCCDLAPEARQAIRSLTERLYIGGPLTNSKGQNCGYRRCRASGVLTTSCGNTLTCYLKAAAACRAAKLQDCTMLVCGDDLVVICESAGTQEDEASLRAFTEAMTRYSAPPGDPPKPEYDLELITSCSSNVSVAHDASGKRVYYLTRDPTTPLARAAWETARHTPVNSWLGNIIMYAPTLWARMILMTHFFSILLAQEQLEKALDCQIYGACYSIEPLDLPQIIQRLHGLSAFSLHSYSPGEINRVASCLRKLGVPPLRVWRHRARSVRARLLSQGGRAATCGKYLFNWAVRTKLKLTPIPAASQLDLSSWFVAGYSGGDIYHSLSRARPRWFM

`CNC(=O)c1c(-c2ccc(Oc3ccc(F)cc3)cc2)oc2ccc(-c3cc(C(=O)NC4(c5ncccn5)CC4)c(OC)cc3C)c(F)c12` [4-Fluoro-2-(4-(4-fluorophenoxy)phenyl)-5-(4-methoxy-2-methyl-5-(1-(pyrimidin-2-yl)cyclopropylcarbamoyl)phenyl)-N-methylbenzofuran-3-carboxamide] displayed an IC50 against HCV NS5B of 24 µM. For the same molecule, in series [1], it took 5 µM to reach a half-maximal effect (EC50).

Take `CNC(=O)c1c(-c2ccc(F)cc2)oc2cc(N(CCO)S(C)(=O)=O)c(C3CC3)cc12` [HCV-796]: the hepatic toxicity entry in series [2] was “hepatic toxicity observed”. Also, in the series with HCV [3], the “HCV RNA levels in patients” value is reported as “showed an ability to reduce HCV RNA levels in patients”.

In the case of alpha-interferon and ribavirin, the “sustained efficacy, share of patients” value in the series on HCV [4] is 40%.
